Reference: US20120302516A1, “NANOPARTICLES FOR DRUG DELIVERY” (UNIVERSITY OF LOUISVILLE RESEARCH FOUNDATION, INC., priority 2009, published 2012)
Counter-ions that a name gives are not always drawn.

Experiments:
[1] = AEM field-mediated release of FITC conjugates from NP.(AO).FITC particles, supernatant fluorescence (HPLC); format: physicochemical; conditions: water, AEM field 201.4 A, 203 kHz, 30 minutes, after washes
Text: The fluorophore FITC-CHO was attached to iron oxide nanoparticles by reaction with NP-bound aminooxy compounds (previously described compounds 6.1, 7.1 and the diol analog of 7.1) to show the influence of resident hydroxyl functionality on the binding and release properties of derived iron oxide formulations. Scheme E below depicts the fluorophore aldehyde and the three oxime ether conjugates selected for this study. Using the stepwise synthesis method, FITC-CHO was mixed with NP-AO particles derived from the three aminooxy compounds to give the NP.(AO).FITC fluorophore formulations. […] The relative binding and release properties were measured by fluorescence spectroscopy on the supernatant solutions after magnetic separation of the nanoparticles and/or NP.(AO).FITC particles.
Integration of the supernatant fluorescence after NP washing and after AEM field irradiation is indicative of the binding to the nanoparticles and the release of FITC into the supernatant. […]
To a suspension of the NP.AO (3 mg) in methanol at room temperature was added a solution of FITC-CHO in methanol (0.01M, 50 μL/mg of NP.AO). […] The particles then were magnetically separated, the supernatant was removed and analyzed. The particles were washed twice with methanol (3× reaction volume) and the supernatants collected each time and analyzed. […]

[2] = system: MCF-7 cells; experiment: AEM field-induced drug release in MCF-7 cells; dead (floating) cells counted by hemocytometer after 48 h; format: cell-based, Human; conditions: AEM field exposure No, no Fe3O4, 0.3 mg Dox
Protocol: Breast cancer MCF-7 cells were treated with the resultant Dox-NP formulations, and the treated cells then were either allowed to incubate or briefly exposed to an AEM field to induce drug release from the Dox-NP formulations.
AEM field study. Results of MCF-7 cells treated with nanoparticle-doxorubicin formulations followed by alternating electromagnetic (AEM) field exposure (15 mins, 350 A, 203 KHz) were obtained. Cells plated in 30 mm dishes were treated with NP formulations at a 0.5 mg Fe3O4 dose unless otherwise specified. Doxorubicin loadings per mg NP formulation were as follows: dNP.AO.Dox (0.64 mg Dox/mg), sNP.AO.Dox (0.43 mg Dox/mg), NP.Dox (0.05 mg Dox/mg). […]
Cell culture toxicity study. Human breast cancer cells (MCF-7) were purchased from American Type Culture Collection (VA, USA). Cells were plated in 30 mm dishes at ˜4˜10^5 cells/dish, and then grown up to 50-60% confluency in DMEM, 1% Pennstrep (Mediatech, Inc, VA) and 10% FBS (Valley Biomedical, Winchester, Va.).
Alternating electromagnetic field-induced drug release in MCF-7 cells. […]
Each measured amount of NP formulation was diluted to 2 mL by adding DMEM containing 10% FBS. […]

Row | SMILES | release into supernatant (fluorescence) after AEM field exposure [1] | MCF-7 cell death, extent (major/minor) ([2]; continuation line of the cell death cell) | MCF-7 cell death ([2]; relative to 'cells only' control, 48 h)
1 | C[N+](CCO)(CCO)CCO/N=C/CCCNC(=S)Nc1ccc(-c2c3ccc(=O)cc-3oc3cc(O)ccc23)c(C(=O)O)c1 [FITC-III] | considerable FITC-conjugate is released into solution | – | –
2 | COc1cccc2c1C(=O)c1c(O)c3c(c(O)c1C2=O)C[C@@](O)(C(=O)CO)C[C@@H]3O[C@H]1C[C@H](N)[C@H](O)[C@H](C)O1 [Dox, doxorubicin.HCl] | – | (major) | Yes
3 | O=CCCCNC(=S)Nc1ccc(-c2c3ccc(=O)cc-3oc3cc(O)ccc23)c(C(=O)O)c1 [FITC-CHO] | no recovery of fluorescence after exposure to an AEM field | – | –
